# Molecular target: Urease subunit alpha (Sporosarcina pasteurii, UniProt P41020)
# Assay: Urease Inhibition Assay
# Conditions: 30 °C
# Protocol: Reaction mixtures comprising one unit of urease enzyme (B. pasteurii) solution and 55 uL of buffers containing 100 mMol urea were incubated with 5 uL of test compounds (1 mMol concentration) at 30° C for 15 min in 96-well plates. Urease activity was determined by measuring ammonia production using the indophenol'smethod. Momentarily, 45 uL each of phenol reagent and 70 uL of alkali reagent were added to each well. The increasing absorbance at 630 nm was measured after 50 min, using a micro-plate reader (Molecular Devices, USA). All reactions were performed in triplicate in a final volume of 200 uL. The results (change in absorbance per min.) were processed by using the Soft-Max Pro s4.5.Software (Molecular Devices, USA).
# Chain of Urease subunit alpha (P41020 as listed by the source): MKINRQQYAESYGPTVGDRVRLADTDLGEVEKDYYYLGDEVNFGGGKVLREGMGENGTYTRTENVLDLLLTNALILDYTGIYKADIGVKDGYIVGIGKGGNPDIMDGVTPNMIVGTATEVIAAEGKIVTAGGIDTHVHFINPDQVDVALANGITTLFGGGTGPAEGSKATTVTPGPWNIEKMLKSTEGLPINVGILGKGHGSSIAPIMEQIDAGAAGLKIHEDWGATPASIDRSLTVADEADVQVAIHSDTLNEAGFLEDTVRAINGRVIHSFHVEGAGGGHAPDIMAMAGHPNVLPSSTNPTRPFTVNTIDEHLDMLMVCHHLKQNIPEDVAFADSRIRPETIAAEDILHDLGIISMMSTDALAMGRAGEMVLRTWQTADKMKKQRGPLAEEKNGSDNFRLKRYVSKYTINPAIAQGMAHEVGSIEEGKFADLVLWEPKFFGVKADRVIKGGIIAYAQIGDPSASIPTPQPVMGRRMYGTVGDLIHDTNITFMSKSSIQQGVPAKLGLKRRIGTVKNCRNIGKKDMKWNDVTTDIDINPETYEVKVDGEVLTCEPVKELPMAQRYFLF
row,IC50 [µM],Structure (SMILES)
1,69.5,O=c1oc2ccccc2c(O)c1S(=O)(=O)c1cccc2ccccc12 [3-(1-Naphthosulfonyl)-(4-hydroxycoumarin) (16)]
2,11.3,"COc1cc(C(=O)c2c(O)c3ccccc3oc2=O)cc(OC)c1OC [3-(3,4,5-Trimethoxybenzoyl)-(4-hydroxycoumarin) (9)]"
3,29.5,CS(=O)(=O)c1c(O)c2ccccc2oc1=O [3-(Methanesulfonoyl)-(4-hydroxycoumarin) (11)]
4,30.9,CCCCCCCCC(=O)c1c(O)c2ccccc2oc1=O [3-Nonanoyl-(4-hydroxycoumarin) (4)]

row,Structure (SMILES),IC50 [µM]
1,CCCCCCCCCC(=O)c1c(O)c2ccccc2oc1=O [3-Decanoyl-(4-hydroxycoumarin) (5)],13
2,CCCCCCCCCCCC(=O)c1c(O)c2ccccc2oc1=O [3-Lauroyl-(4-hydroxycoumarin) (6)],17.1
3,NC(N)=S [thiocarbamide],21

# From BindingDB's records for doi:10.1016/j.bioorg.2016.04.005 (Comsats Institute of Information Technology, 2016)
